Measured values reported in US10596173B2, “Combination therapy of an HBV capsid assembly inhibitor and an interferon” (Hoffmann-La Roche Inc., priority 2015, dated 2020).
Where “and” joins values, the source holds several entries; their conditions need not be identical. Equal entries are not always repeated.

What was measured:
HBV [1] = assay: Combination study with Roferon in HBV infected HepaRG cells: HBV DNA in supernatant by qPCR, CalcuSyn and isobologram analysis; format: cell-based, HBV (genotype D); conditions: for Overall CI: average of CI at 50%, 75% and 90%; for EC50: Hepatitis B virus, HepaRG
Protocol: HepG2.2.15 cells were cultured in DMEM+Glutamax I medium (Gibco, #21885) supplemented with 10% FBS, 1% Pen/Strep (Gibco, #15140) and G-418 ([…]) and used for production of infectious HBV (genotype D). 90% confluent cells from three T175 flasks were trypsinized and transferred into one collagen coated hyperflask (550 mL). Once the cells were confluent, medium was changed to DMEM+Glutamax I medium with 1% DMSO and 2.5% FBS. Once the cells were slightly over confluent, medium was changed to DMEM/F12+Glutamax I medium (Gibco, #31331) supplemented with MEM non-essential aminoacids (6 mL, Gibco, #11140), P/S (6 mL), sodium pyruvate (6 mL), DMSO (9 mL) and FBS (10 mL) (all per 500 mL medium). Medium was changed every 3 days and supernatants were harvested for 2 weeks. Virus was concentrated from supernatants by PEG precipitation and the titer (genome equivalent (GE)/mL) was determined by qPCR. Briefly, supernatants were mixed with 40% PEG solution at a ratio of 4:1, incubated on a shaker at 4° C. overnight and then centrifuged using 50 mL falcon tubes at 4° C. for one hour at 3724 g (RCF). The supernatant was discarded and the centrifugation step was repeated with new supernatant reusing the tubes until all PEG-precipitated supernatant was processed. The pellets were re-suspended in William's E Medium (Gibco, #22551) at a concentration of 10^7-10^9 genome equivalents (GE) per ml and frozen at −80° C. DNA copy number calculation was based on a standard curve generated from HBV plasmid dilutions with known concentrations.
HepaRG cells (Biopredic International, Saint-Gregoire, France) were cultured in working growth medium (500 mL Willams E Medium with 50 mL HepaRG Growth supplement from Biopredic, 5 mL Glutamax-I (Gibco, #35050) and 5 mL Pen/Strep) for 2 weeks. After 2 weeks, medium was changed to differentiation medium containing 1.8% DMSO (500 mL Willams E Medium with 50 mL HepaRG Growth supplement from Biopredic, 5 mL Pen/Strep, 5 mL Glutamax-I and 9 mL DMSO). Medium was changed twice a week up to 2 weeks. Once fully differentiated, cells were trypsinized and seeded into collagenated 96-well plates (50,000 cells/well in 100 μL) or 24-well plates (300,000 cells/well in 500 μL) in differentiation medium. Cells were cultured at least 5 days in the plates before they were infected with HBV.
The combination experimental results were analyzed using the model described by Craig et al. (Craig J, Duncan I, Whittaker L and Roberts N. (1990). Antiviral synergy between inhibitors of HIV proteinase and reverse transcriptase. Antiviral Chem. Chemother. 4:161-166). EC50 values were obtained for compounds used alone and in combination with others. To relate these two values and describe the degree of synergy/additivity/antagonism between them, the Fractional Inhibitory Concentration (FIC) was first calculated and used to generate isobolograms. Briefly, the FIC is the ratio of the EC50 of the drug in combination to the EC50 of the drug on its own: FIC=ratio[EC50combination:EC50alone]
The Combination Index (CI), obtained by adding the FICs of the two compounds, was then used to describe the effect between compounds used in the combinations. A CI<1 means synergism, a CI=1 means additivity and a CI>1 means antagonism.
Each experiment was performed in at least triplicate and performed independently 3 times. Mean percent inhibition of HBV replication based on DNA copy number was calculated from all experiments and analyzed using the Calcusyn software (CalcuSyn Version 2.11, Biosoft, Cambridge, UK) based on the Loewe additivity model described by Chou and Talalay (Chou T C (2006). Theoretical basis, experimental design, and computerized simulation of synergism and antagonism in drug combination studies. Pharmacol. Rev., 58:621-681). For the CalcuSyn evaluation, data from three diagonal lanes with a constant concentration ratio for the drug combinations of each lane from the checkerboard plate were used (marked in bold in Table 2). […]

HBV [2] = conditions: HBV infected transgenic mouse model or humanized mouse models; cited from earlier work
[3] = system: HBV infected HepaRG cells; assay: CellTiter-Glo cell viability assay of HBV infected and treated HepaRG cells; format: cell-based; conditions: individual compound at maximum concentration, day 11 post infection
Protocol: Cell viability of the HBV infected and treated HepaRG cells was determined at day 11 post infection using the CellTiter-Glo® Luminescent Cell Viability Assay (Promega, Cat. No. G7572). 100 μL of CTG reagent were added to each well of the cells, incubated for 10 min and 80 μL of each well were transferred to a new white 96 well plate. Luminescence (0.2 sec) was measured using an Envision reader (PerkinElmer).

[4] = CalcuSyn, HBV DNA, molar ratio 1:0.3
[5] = CalcuSyn, HBV DNA, molar ratio 1:1
[6] = CalcuSyn, HBV DNA, molar ratio 1:3
[7] = individual compound, HBV infected HepaRG cells, HBV DNA, mean of n independent experiments

Nc1ccn([C@@H]2CS[C@H](CO)O2)c(=O)n1 [3TC and 3TC]
CI value at 50% HBV inhibition (HBV [1]; [4]): 1.12 ± 0.24
CI value at 75% HBV inhibition (HBV [1]; [4]): 1.05 ± 0.16
CI value at 90% HBV inhibition (HBV [1]; [4]): 1.02 ± 0.11
CI value at 50% HBV inhibition (HBV [1]; [5]): 0.98 ± 0.12
CI value at 75% HBV inhibition (HBV [1]; [5]): 1.00 ± 0.14
CI value at 90% HBV inhibition (HBV [1]; [5]): 1.06 ± 0.11
CI value at 50% HBV inhibition (HBV [1]; [6]): 1.02 ± 0.22
CI value at 75% HBV inhibition (HBV [1]; [6]): 1.03 ± 0.22
CI value at 90% HBV inhibition (HBV [1]; [6]): 1.08 ± 0.21
Overall CI (HBV [1]; CalcuSyn, molar ratio 1:0.3): 1.06 ± 0.16
Overall CI (HBV [1]; CalcuSyn, molar ratio 1:1): 1.02 ± 0.11
Overall CI (HBV [1]; CalcuSyn, molar ratio 1:3): 1.04 ± 0.19
Assessment of combination effect (HBV [1]; CalcuSyn, based on overall CI values): additivity

COC(=O)C1=C(C)NC(c2ncc(F)cc2F)=N[C@H]1c1ccc(F)cc1Cl [Bay 41-4109]
in vivo efficacy (HBV [2]): demonstrated in vivo efficacy with HBV DNA reduction

COC(=O)C1=C(CN2CCOC[C@H]2C(=O)O)N=C(c2nccs2)N[C@H]1c1ccc(F)cc1Cl [Compound 1, (S)-4-[(R)-6-(2-Chloro-4-fluoro-phenyl)-5-methoxycarbonyl-2-thiazol-2-yl-3,6-dihydro-pyrimidin-4-ylmethyl]-morpholine-3-carboxylic acid]
EC50 (HBV [1]; [7]): 0.0212 µM
% cell viability at max concentration ± SD (n) [3]: 96.8 ± 4.2 (3) %

Nc1ccn([C@@H]2CS[C@H](CO)O2)c(=O)n1 [Compound 3TC, Lamivudine]
EC50 (HBV [1]; [7]): 0.0129 µM
% cell viability at max concentration ± SD (n) [3]: 86.4 ± 2.6 (3) % and 104.5 ± 2.6 (3) %

CCOC(=O)C1=C(CN2CCN3C(=O)N(CC(C)(C)C(=O)O)C[C@@H]3C2)NC(c2nccs2)=N[C@H]1c1cccc(F)c1C [Compound 4, 3-[(8aS)-7-[[(4S)-5-ethoxycarbonyl-4-(3-fluoro-2-methyl-phenyl)-2-thiazol-2-yl-1,4-dihydropyrimidin-6-yl]methyl]-3-oxo-5,6,8,8a-tetrahydro-1H-imidazo[1,5-a]pyrazin-2-yl]-2,2-dimethyl-propanoic acid]
EC50 (HBV [1]; [7]): 0.0087 µM
% cell viability at max concentration ± SD (n) [3]: 96.1 ± 14.5 (3) %

interferon alfa-2a [Roferon]
EC50 ± SD (n) (HBV [1]; [7]): 0.9 IU/mL ± 0.5 (3) and 1.8 IU/ml ± 1.7 (3) IU/mL
